Laboratory results reported in paper PMC6494831, “Drug-like Fragments Inhibit agr-Mediated Virulence Expression in Staphylococcus aureus” (Scientific Reports, 2019).
Read-outs that look alike come from different tables or passages of the source.

Biological target: AgrA (Staphylococcus aureus, UniProt P0A0I7)
Assay: ITC with purified AgrAC, one-site fit, N fixed to […]
Assay type: binding

Sequence of AgrA (P0A0I7 137-238): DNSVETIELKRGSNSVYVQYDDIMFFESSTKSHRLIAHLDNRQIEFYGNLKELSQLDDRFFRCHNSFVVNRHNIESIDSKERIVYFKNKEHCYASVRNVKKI

| SMILES | Kd | Kd (read-out: Kd) |
| --- | --- | --- |
| Cc1ccc(-c2nc(C(=O)O)cs2)cc1 [compound 2, 2-(4-methylphenyl)-1,3-thiazole-4-carboxylic acid] | 417 ± 62.9 µM | – |
| Cc1cc(O)cc(C)c1C#N [compound 3, 4-hydroxy-2,6-dimethylbenzonitrile] | – | 110 ± 45.6 µM |
| O=C(O)C1c2ccccc2Oc2ccccc21 [compound 1, 9H-xanthene-9-carboxylic acid] | 485 ± 39.3 µM | – |
